Tests used:
[1] = system: β-lactamase-producing clones; assay: MIC fold reduction of meropenem in combination with inhibitor (discussion summary); type: cell-based, Escherichia coli
Description: The combination of D2573 with cephalosporins (cefotaxime plus D2573 and cefoxitin plus D2573) or the combination of D2148 with cephalosporins (cefotaxime plus D2148 and cefoxitin plus D2148) or the combination of D63 with cephalosporins (cefotaxime plus D63 and cefoxitin plus D63) had […] MICs than the control. […] The MIC and MBC data are in harmony with in silico data which concluded that three potential inhibitors, D2573, D2148, and D63, are potential candidates against broad-spectrum β-lactamase-producing bacterial strains.
The MICs of various antibiotics in combination with selected inhibitors were determined on DH5α cells and clinical strains (AK-10, AK-12,AK-18, NP-6, AK-67, AK-66) using the microdilution method; Clinical and Laboratory Standards Institute (CLSI) guidelines were used to interpret the results ([37], [38]). In a series of 2-fold dilutions, E. coli cells were given escalating doses of antibiotics from 0 to 512 μg/mL.

KPC-2 = molecular target: T1, KPC-2 (Klebsiella pneumoniae, UniProt Q9F663); assay: Fluorescence quenching; type: binding; details: 298 K
T1 construct: made in house; host or cells: E. coli (DH5 and BL21(DE3) named; pET-28a)
T1 sequence (Q9F663 25-293, looked up, species assumed): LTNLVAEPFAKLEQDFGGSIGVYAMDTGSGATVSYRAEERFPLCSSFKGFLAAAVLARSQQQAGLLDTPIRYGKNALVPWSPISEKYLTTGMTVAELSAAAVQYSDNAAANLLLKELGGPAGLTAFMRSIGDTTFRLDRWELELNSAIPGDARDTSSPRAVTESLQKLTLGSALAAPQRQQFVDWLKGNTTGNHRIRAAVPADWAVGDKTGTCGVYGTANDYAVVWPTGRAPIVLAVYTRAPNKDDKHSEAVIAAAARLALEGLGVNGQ
Procedure: (§1) Fluorescence quenching can be either dynamic or static in nature. The fluorescence intensity was calculated to understand the mechanism of protein quenching from all three classes of β-lactamase with D63, D2148, and D2573. The KSV (Stern–Volmer quenching constant; [Q] is the concentration of inhibitor) of all protein-inhibitor complexes was calculated from the slope of plot Fo/F (fluorescence intensities in the absence and presence of quencher) versus [Q], whereas number of binding sites (n) and Kb values for all combinations of proteins and inhibitors were determined by the slope and intercept of plot log (Fo/F – 1) versus log[Q] (Table 9).
(§2) A Shimadzu RF-5301PC spectrofluorometer (Shimadzu Corporation, Kyoto, Japan) was used to measure the fluorescence spectra. Quenching was observed by measuring intrinsic fluorescence at 295 nm between 300 and 400 nm. The emission and excitation slits were both adjusted to 5 nm. Then, 2 μM each D2573, D2148, and D63 were added to a 3-mL sample containing 2 μM protein ([…]). All the fluorescence intensities were corrected for the inner filter effect. The determination of the number of binding sites (n) and binding constant (Kb) at 298 K temperature for all the protein-inhibitor combinations from the Stern-Volmer equation and modified Stern-Volmer equation (equations 4 and 5). (4) (F0)/F = 1 + Ksv[Q] (5) Log (F0 − F)/F= logKb + n log[Q]
(§3) Fo and F are the fluorescence intensities in the absence and presence of quencher (D63, D2148, D2573).

SHV-1 = molecular target: T2, SHV-1 (Klebsiella pneumoniae, UniProt P0AD64); assay: Fluorescence quenching; type: binding; details: 298 K
T2 construct: made in house; host or cells: E. coli (DH5 and BL21(DE3) named; pET-28a)
T2 sequence (P0AD64 22-286): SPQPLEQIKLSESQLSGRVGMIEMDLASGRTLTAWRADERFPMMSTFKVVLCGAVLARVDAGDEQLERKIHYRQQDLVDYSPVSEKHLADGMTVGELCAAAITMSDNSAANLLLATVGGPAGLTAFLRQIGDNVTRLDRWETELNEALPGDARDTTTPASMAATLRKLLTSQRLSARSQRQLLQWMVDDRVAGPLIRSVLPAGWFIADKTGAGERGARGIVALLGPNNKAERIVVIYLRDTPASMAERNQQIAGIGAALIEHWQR
Procedure: as §1, §2, §3

CTX-M-15 = molecular target: T3, CTX-M-15 (Escherichia coli, UniProt Q9EXV5); assay: Fluorescence quenching; type: binding; details: 298 K
T3 construct: made in house; host or cells: E. coli (DH5 and BL21(DE3) named)
T3 sequence (Q9EXV5 29-291, species assumed): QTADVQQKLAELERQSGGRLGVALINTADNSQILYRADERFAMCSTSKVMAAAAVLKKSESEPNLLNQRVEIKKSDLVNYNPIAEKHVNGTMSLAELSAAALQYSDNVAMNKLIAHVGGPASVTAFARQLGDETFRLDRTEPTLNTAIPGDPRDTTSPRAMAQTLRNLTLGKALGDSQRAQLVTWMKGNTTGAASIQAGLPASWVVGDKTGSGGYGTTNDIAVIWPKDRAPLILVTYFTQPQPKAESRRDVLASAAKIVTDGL
Procedure: as §1, §2, §3

TEM-1 = molecular target: T4, TEM-1 (Escherichia coli, UniProt P62593); assay: Fluorescence quenching; type: binding; details: 298 K
T4 construct: made in house; host or cells: E. coli (DH5 and BL21(DE3) named; pET-28a)
T4 sequence (P62593 24-286 limits assumed): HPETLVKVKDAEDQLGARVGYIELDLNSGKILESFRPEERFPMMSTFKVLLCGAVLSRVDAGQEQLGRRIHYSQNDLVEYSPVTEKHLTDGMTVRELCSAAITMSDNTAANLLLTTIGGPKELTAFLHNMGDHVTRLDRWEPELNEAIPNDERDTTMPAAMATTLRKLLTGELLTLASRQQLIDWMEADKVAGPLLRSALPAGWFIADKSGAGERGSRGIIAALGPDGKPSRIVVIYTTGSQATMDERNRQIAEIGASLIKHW
Procedure: as §1, §2, §3

NDM-1 = molecular target: T5, NDM-1 (Klebsiella pneumoniae, UniProt C7C422); assay: Fluorescence quenching; type: binding; details: 298 K
T5 construct: made in house; host or cells: E. coli (DH5 and BL21(DE3) named)
T5 sequence (C7C422 29-270, looked up, species assumed): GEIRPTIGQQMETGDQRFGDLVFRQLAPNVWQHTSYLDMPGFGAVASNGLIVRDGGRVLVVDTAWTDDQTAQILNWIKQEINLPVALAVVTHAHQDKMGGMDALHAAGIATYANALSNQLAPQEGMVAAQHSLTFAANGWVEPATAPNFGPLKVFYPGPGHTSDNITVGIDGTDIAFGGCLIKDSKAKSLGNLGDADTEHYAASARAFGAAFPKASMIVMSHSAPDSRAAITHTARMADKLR
Procedure: as §1, §2, §3

Amp-C = molecular target: T6, Amp-C (Escherichia coli, UniProt P00811); assay: Fluorescence quenching; type: binding; details: 298 K
T6 construct: made in house; host or cells: E. coli (DH5 and BL21(DE3) named; pET-28a)
T6 sequence (P00811 20-377): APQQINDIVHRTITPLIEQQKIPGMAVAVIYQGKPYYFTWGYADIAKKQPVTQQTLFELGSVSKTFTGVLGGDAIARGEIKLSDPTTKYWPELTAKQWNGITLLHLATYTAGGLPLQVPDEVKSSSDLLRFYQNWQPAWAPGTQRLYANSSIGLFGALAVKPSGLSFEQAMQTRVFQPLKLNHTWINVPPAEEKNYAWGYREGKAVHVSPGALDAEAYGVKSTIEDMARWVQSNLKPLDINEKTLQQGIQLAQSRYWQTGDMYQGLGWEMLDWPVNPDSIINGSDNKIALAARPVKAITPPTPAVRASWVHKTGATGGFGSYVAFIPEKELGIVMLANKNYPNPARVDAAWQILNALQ
Procedure: as §1, with “9). In this study, the KSV values were obtained, on the order of 10^2 to 10^5, for all enzyme-inhibitor complexes.” for “9).”
as §2, §3

NIH 3T3 cells = assay: MTT cytotoxicity assay; type: cell-based; details: 24 h; for cellular viability: 50 μg/mL; for cytotoxicity (result in words): up to 50 μg/mL
Procedure: (§4) Cytotoxicity of lead molecules D2573, D2148, and D63 on NIH 3T3 cells was evaluated by MTT assay. The relative cellular viability of NIH 3T3 cells in the presence of each sample D2573, D2148, and D63 at different concentrations (12.5 μg/mL, 25 μg/mL, and 50 μg/mL) is shown in Fig. 6.
(§5) A cytotoxicity experiment was performed on NIH 3T3 cells. The NIH 3T3 cells were grown at 37°C in Dulbecco’s modified Eagle’s medium (DMEM) supplemented with 10% fetal bovine serum (FBS) and 1% antibiotic, penicillin-streptomycin (pen-strep), in a humidified incubator with 5% CO2. Sterile conditions were maintained at all times. Cells (~10^5 cells/well) were seeded in 96-well plates and allowed to adhere overnight. The cells were subsequently given different quantities of the lead compounds D2573, D2148, and D63 (12.5 μg/mL, 25 μg/mL, and 50 μg/mL, respectively). A conventional 3-(4,5-dimethylthiazol-2-yl)-2,5-diphenyl tetrazolium bromide (MTT) test was used to measure cell survival after 24 h. The supernatants were removed, and each well was filled with 90 μL of new medium and 10 μL of MTT (1 mg/mL) solution, which was then incubated for 4 h at 37°C. The formazan crystals generated during the reduction of MTT were dissolved in 150 μL of dimethyl sulfoxide (DMSO), and the absorbance was measured by measuring the optical density using a spectrophotometer at a wavelength of 570 nm.

MTT cytotoxicity assay = type: cell-based; details: mouse, NIH 3T3 cells, 50 μg/mL, read-out: cellular viability
Procedure: as §4, §5

SMILES	Reduction of MIC of meropenem in combination with inhibitor ([1]; all selected β-lactamase enzymes)	n (number of binding sites) (KPC-2)	n (number of binding sites) (SHV-1)	n (number of binding sites) (CTX-M-15)	n (number of binding sites) (TEM-1)	n (number of binding sites) (NDM-1)	n (number of binding sites) (Amp-C)	cellular viability (NIH 3T3 cells)	cytotoxicity (result in words) (NIH 3T3 cells)	viability at 24 h, 50 μg/mL (MTT cytotoxicity assay)	Reduction of MIC of meropenem in combination with inhibitor ([1]; class A β-lactamases)	Reduction of MIC of meropenem in combination with inhibitor ([1]; class B and C β-lactamases)
O=C(O)c1ccccc1C(=O)N1CCN(c2nc(-c3ccccc3)ns2)CC1 [D2573, 2-{[4-(3-phenyl-1,2,4-thiadiazol-5-yl)piperazino]carbonyl}benzoic acid]	2 fold	1.1315	0.7621	0.9674	0.750	0.1842	0.7042	> 75%	nontoxic	82%	–	–
O=C(CN1C(=O)c2ccccc2S1(=O)=O)c1ccc(O)c(O)c1 [D63, 2-[2-(3,4-dihydroxyphenyl)-2-oxoethyl]-1H-1,2-benzisothiazole-1,1,3(2H)-trione]	–	0.33	0.4791	1.9313	0.4298	1.6673	0.8493	> 75%	nontoxic	~78%	2 fold	4 fold
O=C(c1ccccc1)C1CCN(C(=O)CN2C(=O)c3ccccc3C2=O)CC1 [D2148, 2-[2-(4-benzoylpiperidino) -2-oxoethyl]-1H-isoindole-1,3(2H)-dione]	–	1.148	0.2952	1.163	0.2489	2.457	1.2792	> 75%	nontoxic	~78%	2 fold	4 fold
